Measured values as given in US8680096B2, “Diphenyl-pyrazolopyridine derivatives, preparation thereof, and use thereof as nuclear receptor not modulators” (Sanofi-Aventis, priority 2009, dated 2014).

Molecular target: T1, murine Nurr1 receptor (Mus musculus, UniProt Q06219)
T1 construct: a cell line (N2A) endogenously expressing the murine Nurr1 receptor; host or cells: Neuro-2A (N2A) mouse neuroblastoma cells stably transfected with 8NBRE-luciferase
Assay: In vitro activity on N2A cells (8NBRE-luciferase reporter)
Assay type: cell-based
Settings: N2A cells endogenously expressing Nurr1, stably transfected with 8NBRE-luciferase; 24 hours incubation
Experimental: Evaluation of the In Vitro Activity on N2A Cells
The activity of the compounds according to the invention was evaluated on a cell line (N2A) endogenously expressing the murine Nurr1 receptor and stably transfected with the NOT binding response element (NBRE) coupled to the luciferase reporter gene. The tests were performed according to the procedure described hereinbelow.
The cell line Neuro-2A is obtained from a standard commercial source (ATCC). The clone Neuro-2A was obtained from a spontaneous tumour originating from a strain of albino mice A by R. J Klebe et al. This line Neuro-2A is then stably transfected with 8NBRE-luciferase. The N2A-8NBRE cells are cultured to the point of confluence in 75 cm^2 culture flasks containing DMEM supplemented with 10% foetal calf serum, 4.5 g/L of glucose and 0.4 mg/ml of geneticin. After culturing for one week, the cells are recovered with 0.25% trypsin for 30 seconds and then resuspended in DMEM without phenol red, containing 4.5 g/L of glucose and 10% Hyclone defatted serum, and placed in white, transparent-base 96-well plates. The cells are deposited at a rate of 60 000 per well in 75 4, for 24 hours before adding the products. The products are applied in 25 4 and incubated for a further 24 hours. On the day of measurement, an equivalent volume (100 4) of Steadylite is added to each well, and the wells are then left for 30 minutes to obtain complete lysis of the cells and maximum production of the signal. The plates are then measured in a microplate luminescence counter, after having been sealed with an adhesive film. The products are prepared in the form of a 10^−2 M stock solution, and then diluted in 100% of DMSO. Each concentration of product is prediluted in culture medium before incubation with the cells thus containing 0.625% final of DMSO.

T1 sequence (Q06219 whole entry): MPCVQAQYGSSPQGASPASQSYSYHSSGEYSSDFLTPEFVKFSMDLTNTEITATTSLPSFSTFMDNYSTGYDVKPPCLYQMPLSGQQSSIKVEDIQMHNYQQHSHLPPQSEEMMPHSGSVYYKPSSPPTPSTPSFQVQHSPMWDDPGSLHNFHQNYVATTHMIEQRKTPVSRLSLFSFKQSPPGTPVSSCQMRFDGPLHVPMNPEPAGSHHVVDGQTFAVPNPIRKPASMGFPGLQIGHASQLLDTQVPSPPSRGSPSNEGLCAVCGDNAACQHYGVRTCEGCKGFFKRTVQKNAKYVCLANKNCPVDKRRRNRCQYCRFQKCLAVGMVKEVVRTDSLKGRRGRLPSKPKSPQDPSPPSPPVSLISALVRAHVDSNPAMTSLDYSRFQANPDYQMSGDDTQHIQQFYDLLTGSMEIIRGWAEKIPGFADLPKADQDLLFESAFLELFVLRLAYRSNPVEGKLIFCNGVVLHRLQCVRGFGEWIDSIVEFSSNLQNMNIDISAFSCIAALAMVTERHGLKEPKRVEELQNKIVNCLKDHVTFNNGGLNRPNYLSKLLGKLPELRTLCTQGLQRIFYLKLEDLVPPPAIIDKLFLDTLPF

SMILES | EC50
NC(=O)c1cccc(-c2ccn3nc(-c4ccc(Cl)cc4)cc3c2)c1 [Compound 2, 3-[2-(4-Chlorophenyl)pyrazolo[1,5-a]pyridin-5-yl]benzamide] | 45 nM
CNC(=O)c1cccc(-c2ccn3nc(-c4ccc(F)cc4)cc3c2)c1C [Compound 10, 3-[2-(4-Fluorophenyl)pyrazolo[1,5-a]pyridin-5-yl]-2,N-dimethylbenzamide] | 6.6 nM
O=C(c1cccc(-c2ccn3nc(-c4ccc(F)cc4)cc3c2)c1)N1CCCC1 [Compound 16, {3-[2-(4-Fluorophenyl)pyrazolo[1,5-c]pyridin-5-yl]phenyl}pyrrolidin-1-ylmethanone] | 326 nM
CNC(=O)c1ccc(-c2ccn3nc(-c4ccc(F)cc4)cc3c2)cc1F [Compound 14, 2-Fluoro-4-[2-(4-fluorophenyl)pyrazolo[1,5-c]pyridin-5-yl]-N-methylbenzamide] | 125 nM

Continued, values first:

EC50 | SMILES
1.3 nM | CNC(=O)c1cccc(-c2ccn3nc(-c4cc(F)cc(F)c4)cc3c2)c1 [Compound 26]
2 nM | CNC(=O)c1cccc(-c2ccn3nc(-c4ccc(Cl)cc4)cc3c2)c1 [Compound 4, 3-[2-(4-Chlorophenyl)pyrazolo[1,5-a]pyridin-5-yl]-N-methylbenzamide]

Test system: not given
Assay: not given
Settings: not given

SMILES | melting point
NC(=O)c1cccc(-c2ccn3nc(-c4ccc(Cl)cc4)cc3c2)c1 [Compound 2, 3-[2-(4-Chlorophenyl)pyrazolo[1,5-a]pyridin-5-yl]benzamide] | 283 to 285 °C
O=C(c1cccc(-c2ccn3nc(-c4ccc(F)cc4)cc3c2)c1)N1CCC(O)C1 (centres unmarked) [Compound 22, {3-[2-(4-Fluorophenyl)pyrazolo[1,5-a]pyridin-5-yl]phenyl}-(3-hydroxy-pyrrolidin-1-yl)methanone] | 173 to 175 °C
CNC(=O)c1cc(-c2ccn3nc(-c4ccc(F)cc4)cc3c2)ccc1Cl [Compound 11, 2-Chloro-5-[2-(4-fluorophenyl)pyrazolo[1,5-a]pyridin-5-yl]-N-methylbenzamide] | 243 to 245 °C
COC(=O)c1cccc(-c2ccn3nc(-c4ccc(F)cc4)cc3c2)c1 [Compound 5, Methyl 3-[2-(4-fluorophenyl)pyrazolo[1,5-a]pyridin-5-yl]benzoate] | 162 to 164 °C
CC(C)NC(=O)c1cccc(-c2ccn3nc(-c4ccc(F)cc4)cc3c2)c1 [Compound 7, 3-[2-(4-Fluorophenyl)pyrazolo[1,5-a]pyridin-5-yl]-N-isopropylbenzamide] | 210 to 212 °C
CN(C)C(=O)c1cccc(-c2ccn3nc(-c4ccc(Cl)cc4)cc3c2)c1 [Compound 3, 3-[2-(4-Chlorophenyl)pyrazolo[1,5-a]pyridin-5-yl]-N,N-dimethyl-benzamide] | 175 to 177 °C
COC(=O)c1cccc(-c2ccn3nc(-c4ccc(Cl)cc4)cc3c2)c1 [Compound 1, Methyl 3-[2-(4-chlorophenyl)pyrazolo[1,5-a]pyridin-5-yl]benzoate] | 180 to 182 °C
O=C(NC1CC1)c1cccc(-c2ccn3nc(-c4ccc(F)cc4)cc3c2)c1 [Compound 15, N-Cyclopropyl-3-[2-(4-fluorophenyl)pyrazolo[1,5-a]pyridin-5-yl]-benzamide] | 179 to 181 °C
CNC(=O)c1ccc(-c2ccn3nc(-c4ccc(F)cc4)cc3c2)cc1 [Compound 20, 4-[2-(4-Fluorophenyl)pyrazolo[1,5-a]pyridin-5-yl]-N-methylbenzamide] | 264 to 266 °C
CNC(=O)c1cccc(-c2ccn3nc(-c4ccc(F)cc4)c(Cl)c3c2)c1 [Compound 34, 3-[3-Chloro-2-(4-fluorophenyl)pyrazolo[1,5-a]pyridin-5-yl]-N-methyl-benzamide] | 221 to 223 °C
CNC(=O)c1ccc(Cl)c(-c2ccn3nc(-c4ccc(F)cc4)cc3c2)c1 [Compound 12, 4-Chloro-3-[2-(4-fluorophenyl)pyrazolo[1,5-a]pyridin-5-yl]-N-methylbenzamide] | 188 to 190 °C
CNC(=O)c1cccc(-c2ccn3nc(-c4ccc(OC)cc4)cc3c2)c1 [Compound 29, 3-[2-(4-Methoxyphenyl)pyrazolo[1,5-a]pyridin-5-yl]-N-methylbenzamide] | 211 to 213 °C
O=C(c1cccc(-c2ccn3nc(-c4ccc(F)cc4)cc3c2)c1)N1CCCC1 [Compound 16, {3-[2-(4-Fluorophenyl)pyrazolo[1,5-c]pyridin-5-yl]phenyl}pyrrolidin-1-ylmethanone] | 164 to 166 °C
CNC(=O)c1ccc(-c2ccn3nc(-c4ccc(F)cc4)cc3c2)cc1F [Compound 14, 2-Fluoro-4-[2-(4-fluorophenyl)pyrazolo[1,5-c]pyridin-5-yl]-N-methylbenzamide] | 227 to 229 °C
CNC(=O)c1cccc(-c2ccn3nc(-c4ccc(C(F)(F)F)cc4)cc3c2)c1 [Compound 19, N-Methyl-3-[2-(4-trifluoromethylphenyl)pyrazolo[1,5-a]pyridin-5-yl]benzamide] | 220 to 222 °C
CNC(=O)c1ccc(C)c(-c2ccn3nc(-c4ccc(F)cc4)cc3c2)c1 [Compound 13, 3-[2-(4-Fluorophenyl)pyrazolo[1,5-a]pyridin-5-yl]-4,N-dimethylbenzamide] | 185 to 187 °C

More lines, now with the values ahead:

melting point | SMILES
204 to 206 °C | CNC(=O)c1cccc(-c2ccn3nc(-c4ccc(C)cc4)cc3c2)c1 [Compound 28, N-Methyl-3-(2-p-tolylpyrazolo[1,5-a]pyridin-5-yl)benzamide]
204 to 206 °C | CNC(=O)c1cccc(-c2ccn3nc(-c4cccc(F)c4)cc3c2)c1 [Compound 27, 3-[2-(3-Fluorophenyl)pyrazolo[1,5-a]pyridin-5-yl]-N-methylbenzamide]
129 to 131 °C | CNC(=O)c1cccc(-c2ccn3nc(-c4ccccc4C)cc3c2)c1 [Compound 33, N-Methyl-3-(2-o-tolylpyrazolo[1,5-a]pyridin-5-yl)benzamide]
252 to 254 °C | CNC(=O)c1cccc(-c2ccn3nc(-c4ccc(C#N)cc4)cc3c2)c1 [Compound 31, 3-[2-(4-Cyanophenyl)pyrazolo[1,5-a]pyridin-5-yl]-N-methylbenzamide]
210 to 212 °C | CNC(=O)c1cccc(-c2ccn3nc(-c4ccc(F)cc4F)cc3c2)c1 [Compound 23, 3-[2-(2,4-Difluorophenyl)pyrazolo[1,5-a]pyridin-5-yl]-N-methylbenzamide]
195 to 197 °C | CNC(=O)c1cccc(-c2ccn3nc(-c4ccccc4F)cc3c2)c1 [Compound 18, 3-[2-(2-Fluorophenyl)pyrazolo[1,5-a]pyridin-5-yl]-N-methylbenzamide]
214 to 216 °C | CNC(=O)c1cccc(-c2ccn3nc(-c4ccc(F)cc4)cc3c2)c1 [Compound 6, 3-[2-(4-Fluorophenyl)pyrazolo[1,5-a]pyridin-5-yl]-N-methylbenzamide]
230 to 232 °C | CNC(=O)c1cccc(-c2ccn3nc(-c4cc(F)cc(F)c4)cc3c2)c1 [Compound 26]
214 to 216 °C | CNC(=O)c1cccc(-c2ccn3nc(-c4cccc(F)c4F)cc3c2)c1 [Compound 32, 3-[2-(2,3-Difluorophenyl)pyrazolo[1,5-a]pyridin-5-yl]-N-methylbenzamide]
234 to 236 °C | CNC(=O)c1cccc(-c2ccn3nc(-c4ccc(Cl)cc4)cc3c2)c1 [Compound 4, 3-[2-(4-Chlorophenyl)pyrazolo[1,5-a]pyridin-5-yl]-N-methylbenzamide]
